The text below walks through data of US10525110B2, “Methods for inducing partial apoptosis using caspase polypeptides” (Bellicum Pharmaceuticals, Inc., priority 2013, dated 2020).

Data set [1] has as its system iCasp9-ΔCD19-transduced MSCs. The data set can be described thus: In vivo killing of iCasp9-ΔCD19-transduced MSCs in SCID mice (luminescence, qPCR).
Another data set deals with non-transduced cells. The data set can be described thus: Viability of non-transduced cells with AP20187. It counts as cell-based, human. The procedure:
Suicide gene functionality was assessed by adding a small molecule synthetic homodimerizer, AP20187 (Ariad Pharmaceuticals; Cambridge, Mass.), at 10 nM final concentration the day following CD19 immunomagnetic selection. Cells were stained with annexin V and 7-amino-actinomycin (7-AAD)(BD Pharmingen) at 24 hours and analyzed by flow cytometry. Cells negative for both annexin V and 7-AAD were considered viable, cells that were annexin V positive were apoptotic, and cells that were both annexin V and 7-AAD positive were necrotic. The percentage killing induced by dimerization was corrected for baseline viability as follows: Percentage killing=100%−(% Viability in AP20187-treated cells÷% Viability in non-treated cells).
The day following immunomagnetic selection, 10 nM of the chemical inducer of dimerization, AP20187, was added to induce apoptosis, which appeared within 24 hours. […] Killing efficiency after correction for baseline viability was about 92.9%±3.8%. Large-scale CD19 selection produced cells that were killed with similar efficiency as small-scale selection: mean viability with and without AP20187, and percentage killing, in large and small scale were about 3.9%, about 84.0%, about 95.4% (n=3) and about 6.6%, about 79.3%, about 91.4% (n=5) respectively. […]

A further data set relates to iCasp9-transduced MSCs. The data set can be described thus: Apoptosis of iCasp9-transduced undifferentiated MSCs in vitro (annexin V-PE/7-AAD). It counts as cell-based, human. The following applies: CID 50 nM, 24 hours, FACS example. The procedure:
Undifferentiated MSCs. The chemical inducer of dimerization (CID) (AP20187; ARIAD Pharmaceuticals, Cambridge, Mass.) was added at 50 nM to iCasp9-transduced MSCs cultures in complete medium. Apoptosis was evaluated 24 hours later by FACS analysis, after cell harvest and staining with annexin V-PE and 7-AAD in annexin V binding buffer (BD Biosciences, San Diego, Calif.). Control iCasp9-transduced MSCs were maintained in culture without exposure to CID.
The proapoptotic gene product iCasp9 can activated by a small chemical inducer of dimerization (CID), AP20187, an analogue of tacrolimus that binds the FK506-binding domain present in the iCasp9 product. Non-transduced MSCs have a spontaneous rate of apoptosis in culture of approximately 18% (±7%) as do iCasp9-positive cells at baseline (15±6%, P=0.47). Addition of CID (50 nM) to MSC cultures after transduction with iCasp9-ΔCD19 results in the apoptotic death of more than 90% of iCasp9-positive cells within 24 hrs (93±1%, P<0.0001), while iCasp9-negative cells retain an apoptosis index similar to that of non-transduced controls (20±7%, P=0.99 and P=0.69 vs. non-transduced controls with or without CID respectively) (see FIGS. 17A and 70B). […] Apoptosis was evaluated 24 hours later by FACS analysis, after cell harvest and staining with annexin V-PE and 7-AAD. […]

For the compound `CC[C@H](C(=O)N1CCCC[C@H]1C(=O)O[C@H](CCc1ccc(OC)c(OC)c1)c1cccc(OCC(=O)NCC(CNC(=O)COc2cccc([C@@H](CCc3ccc(OC)c(OC)c3)OC(=O)[C@@H]3CCCCN3C(=O)[C@@H](CC)c3cc(OC)c(OC)c(OC)c3)c2)CN(C)C)c1)c1cc(OC)c(OC)c(OC)c1` [AP20187], in data set [1] (after one week, qPCR), the “surviving iCasp9-positive cells, % of the original population” value was found to be 0.7%. For the same compound, the “effect on cells negative for iCasp9” value in data set [1] (luminescence) is reported as “not affected”. Besides, the “toxicity to non-transduced cells” value in the data set with non-transduced cells is “non-toxic”. Moreover, in the data set on non-transduced cells (n=6), the “viability of non-transduced cells with AP20187” value is “about 86%±9”. In the data set with iCasp9-transduced MSCs, the “annexin positive iCasp9-CD19-positive cells (iCasp pos/CID)” value is listed as “Ninety-three” and the “annexin positive negative population (iCasp neg/CID)” value stood at 19%.
